# Data: patent US20170119020A1, “METHOD OF FEEDING AN ANIMAL” (CARGILL, INCORPORATED, priority 2014, published 2017)
# Marks after values point to notes of the source that are not given here.
# Assays:
# [1] = system: sows (PIC) and their piglets; experiment: Litter performance (Example 10); format: in vivo, pig; details: for Mortality: piglets until weaning
# Procedure: Testing was performed on sows (primiparous and multiparous) of the same type of crossing (PIC). The trial comprised 52 sows in a system of continuous farrowing. Each group was consist of 13 animals. The trial ran from day 1 of pregnancy to remating in the next cycle.
# Each group was fed with complete diets for pregnant sows (0-90 d) and for lactation sows (90 d of gestation-weaning) with different inclusion of vitamin E and tested product (see TABLE 43A) and lactation diets (see TABLE 43B)
# (§1) The performance following criteria were monitored during the trial: (i) Sows response criteria (actual parity, farrowing rate, culled sows—number and reasons, wean-to-mating interval, farrowing rate in the next cycle); (ii) litter response criteria (number of piglets, total, alive, stillborn, mummies; weight of piglets and litters; survival). The following biochemical (blood) criteria were monitored during the trial for the sows (mating, farrowing and weaning), piglets 21st day: (i) glutathione peroxidase (GPx) activity; (ii) superoxide dismutase (SOD) activity; (iii) total antioxidant status (TAS); (iv) vitamin E content; (v) vitamin A content.
# [2] = system: sows and piglets; experiment: Superoxide dismutase (SOD) activity in serum of sows and piglets (Example 10); format: in vivo, pig; details: for Activity of superoxide dismutase (SOD) in serum of piglets: piglets at 21 days
# Description: as §1
# (§2) To determine the oxidative status, the blood samples were collected from sows and piglets into tubes with lithium anticoagulant—received whole blood for analysis. At the same time blood samples were taken for blood clot. They were centrifuged (1500 rpm, 15 Temp. 4° C.) and obtained serum was pipetted into separate tubes.
# (§3) In studies of oxidative status of sows and piglets were used suitable to each of the indicators, the reagent kits from Sigma-Aldrich. Determination was made in accordance with the descriptions of the rules and procedures specified by the manufacturer.
# (§4) The content of the TAS (total antioxidant status) were determined using the Antioxidant assay kit (Cat. No CS0790), the activity of SOD (superoxide dismutase) was determined using SOD determination kit 19160, the activity of GPx (glutathione Peroxide assai Cellular Activity Kit) Cat. No CGP1. The content of vitamins A and E by McMurray and Blanchflower 1979 (Journal of Chromatography 178, 525-531.). TAS
# Serum samples (20 ul) in duplicate were incubated at 37° C. for 20 minutes with the working solution WST (tetrazolium sodium salt, 2-(4-lodophenyl)-3 (4-nitrophenyl0-5-(2,4-disulfophenyl) 2H-tetrazolium, monosodium salt) (200 pl) and the enzyme working solution (20 pl). Simultaneously sample blanks were performed (two reagents, and blank for each sample) and a calibration curve based on serial dilutions of SOD in a range of 200 to 0,001 U/ml. Absorbance of the blank, standards and test samples read on a spectrophotometer at a wavelength of 450 nm. WST produces a water-soluble formazan dye upon reduction with a superoxide anion. The rate of the reduction with O2 are linearly related to the xanthine oxidase (XO) activity. The SOD activity is measured as the degree of blocking the formation of the formazan dye.
# [3] = system: sows and piglets; experiment: Glutathione peroxidase (GPx) activity in blood of sows and piglets (Example 10); format: in vivo, pig; details: for Activity of glutathione peroxidase (GPx) in blood of piglets: piglets at 21 days
# Description: as §1, §2, §3, §4
# Whole blood samples (blood collection from animals to tubes with lithium anticoagulant) in duplicate (10 pl) was added to […] of buffer (pH 8), mixed (vortex—10′), then added 10 pl of a 70% aqueous solution of tert-butyl Hydroperoxide, mixed (by inversion) and the absorbance was measured immediately in a spectrophotometer at a wavelength of 340 nm. After 1 minute the measurement was repeated. Simultaneously blank samples (reagent) were performed and a calibration curve based on GPx serial dilutions in the range of 20 to 50 U/ml. The decrease in NADPH absorbance (during 1 minute) measured at 340 nm during the oxidation of NADPH to NADP+ is indicative of GPx activity.
# [4] = system: livers of Ross 308 chicks; experiment: Chick liver SOD and GSSG analysis, OXISELECT kits (Example 5); format: in vivo, chicken; details: breeder diet
# Procedure: Group egg weights were recorded at E0. At E7 and E18, all eggs were candled and empty eggs or eggs containing dead embryos were removed (early dead E0-E7, mid dead E8-E18). At E18 eggs were transferred to the hatching baskets after candling. At hatch (E21) the number of dead chickens, late dead embryos (E19-E21) and pipped eggs were recorded. The number of hatched chickens was recorded per replicate, as well as average chick weight. Hatchability was calculated as percentage of total eggs set. Sex was determined by feather sexing, female chickens were euthanized by CO2 and disposed according to local regulations. Per experimental unit, five male chickens were selected for the grow-out period and allocated to broiler grower pens. Only chickens with an average body weight, completely dry, showing active movement and with a good navel score were selected. After this selection one male chicken per experimental unit was selected for dissection. Sample chickens were individually weighed and killed by cervical dislocation to measure remaining yolk-sac weights, yolk-free body mass (“YFBM”), liver weight, chick length, and shank length of both shanks. The livers were immediately placed on dry ice and after dissection stored at −20° C. for further analysis (“SOD and GSSG”). Relative asymmetry was calculated according to the following formula: […]
# Furthermore, no treatment effects were found on several chick quality parameters (YFBM, chick length, and relative asymmetry). OXISELECT Superoxide Dismutase Activity Assay (“SOD”) and OXISELECT Total Glutathione (GSSG/GSH) Assay (“GSSG”) kits, available commercially from Cell Biolabs, Inc., San Diego, Calif., USA, were used to analyze chick livers.
# [5] = 1st day, Group 2: vitamin E 50/75 mg/kg sow diet
# [6] = 1st day, Group 3: vitamin E 100/150 mg/kg sow diet
# [7] = Weaning, Group 2: vitamin E 50/75 mg/kg sow diet
# [8] = Weaning, Group 3: vitamin E 100/150 mg/kg sow diet
# [9] = Group 2: vitamin E 50/75 mg/kg sow diet
# [10] = Group 3: vitamin E 100/150 mg/kg sow diet
# [11] = Breeding, Group 2: vitamin E 50/75 mg/kg diet
# [12] = Breeding, Group 3: vitamin E 100/150 mg/kg diet
# [13] = Farrowing, Group 2: vitamin E 50/75 mg/kg diet
# [14] = Farrowing, Group 3: vitamin E 100/150 mg/kg diet
# [15] = Weaning, Group 2: vitamin E 50/75 mg/kg diet
# [16] = Weaning, Group 3: vitamin E 100/150 mg/kg diet
structure (smiles),measurement,setting,value
"Cc1c(C)c2c(c(C)c1O)CCC(C)(CCCC(C)CCCC(C)CCCC(C)C)O2 (racemic) [Vitamin E, DL-α-tocopherol]",Litter weight,[1]; [5],18.50^a kg
same,"Number of piglets per litter, Born alive",[1]; [5],12.82
same,"Number of piglets per litter, Mummies",[1]; [5],0.18
same,"Number of piglets per litter, Stillborn",[1]; [5],1.36
same,"Number of piglets per litter, Weak",[1]; [5],0.36
same,Piglet weight,[1]; [5],1.44 kg
same,Litter weight,[1]; [6],19.07^a kg
same,"Number of piglets per litter, Born alive",[1]; [6],13.18
same,"Number of piglets per litter, Mummies",[1]; [6],0.20
same,"Number of piglets per litter, Stillborn",[1]; [6],1.09
same,"Number of piglets per litter, Weak",[1]; [6],0.40
same,Piglet weight,[1]; [6],1.45 kg
same,Litter weight,[1]; [7],83.96^b kg
same,Piglet weight,[1]; [7],7.16 kg
same,Weaning Number of piglets per litter,[1]; [7],11.73
same,Litter weight,[1]; [8],84.33^b kg
same,Piglet weight,[1]; [8],7.31 kg
same,Weaning Number of piglets per litter,[1]; [8],11.82
same,Mortality,[1]; [9],8.37%
same,Mortality,[1]; [10],10.64%
same,Activity of superoxide dismutase (SOD) in serum of sows,[2]; [11],71.43 U/ml
same,Activity of superoxide dismutase (SOD) in serum of sows,[2]; [12],73.28 U/ml
same,Activity of superoxide dismutase (SOD) in serum of sows,[2]; [13],77.14^B U/ml
same,Activity of superoxide dismutase (SOD) in serum of sows,[2]; [14],79.60^AB U/ml
same,Activity of superoxide dismutase (SOD) in serum of sows,[2]; [15],79.50^C U/ml
same,Activity of superoxide dismutase (SOD) in serum of sows,[2]; [16],90.93^B U/ml
same,Activity of superoxide dismutase (SOD) in serum of piglets,[2]; [9],100.61^B U/ml
same,Activity of superoxide dismutase (SOD) in serum of piglets,[2]; [10],129.54^Ab U/ml
same,Activity of glutathione peroxidase (GPx) in blood of sows,[3]; [11],37.73 U/ml
same,Activity of glutathione peroxidase (GPx) in blood of sows,[3]; [12],38.85 U/ml
same,Activity of glutathione peroxidase (GPx) in blood of sows,[3]; [13],32.77^C U/ml
same,Activity of glutathione peroxidase (GPx) in blood of sows,[3]; [14],37.64^B U/ml
same,Activity of glutathione peroxidase (GPx) in blood of sows,[3]; [15],34.78^C U/ml
same,Activity of glutathione peroxidase (GPx) in blood of sows,[3]; [16],36.48^B U/ml
same,Activity of glutathione peroxidase (GPx) in blood of piglets,[3]; [9],29.12^B U/ml
same,Activity of glutathione peroxidase (GPx) in blood of piglets,[3]; [10],29.91^B U/ml
same,GSSG,[4]; vitamin E equivalence 80 ppm,4.27 µM
same,SOD units,[4]; vitamin E equivalence 80 ppm,0.776 units
same,GSSG,[4]; vitamin E equivalence 160 ppm,4.48 µM
same,SOD units,[4]; vitamin E equivalence 160 ppm,0.777 units
